The text below walks through data of US20050026836A1, “Composition for the treatment of damaged tissue” (priority 1999, published 2005).

For assay [1], the target named is T1, catalytic domain human MMP-14 (Homo sapiens, UniProt P50281).
T1 construct: made in house
The assay is described as follows: MMP-14 fluorogenic inhibition assay. It counts as biochemical. To be noted: read-out: Calculated Ki(nM) MMP-14. The procedure: All enzymes were pre-activated at 37° C. with aminophenylmercuric acetate (APMA) or trypsin before being made up to the final concentrations used in the assay. MMP-1 (30 nM) was activated with 0.93 mM APMA for 20 minutes, MMP-2 (30 nM) was activated with 1.32 mM APMA for 1 hour, MMP-3 (1010 nM) was activated with 1.81 mM APMA for 3 hours or heat activated at 55° C. for three hours, MMP-9 (100 nM) was activated with 2 mM APMA for 2 hours, human MMP-13 (100 nM) was activated with 2 mM APMA for 2 hours, and MMP-14 (900 nM) was activated with 0.9 ng/ml trypsin for 25 minutes, followed by the addition of 4.5 ng/ml trypsin inhibitor.
For MMP-1, the assay buffer used was 50 mM Tris, 200 mM NaCl, 5 mM CaCl2, 20 μM ZnCl2, 0.05% (w/v) Brij 35, pH 7.5. […] For MMP-13, the assay buffer used was 50 mM Tris, pH 7.5, 200 mM NaCl, 5 mM CaCl2, […] and 0.02% (w/v) Brij 35. For MMP-14, the assay buffer used was 50 mM Tris, 100 mM NaCl, 10 mM CaCl2, 0.25% (w/v) Brij 35, pH 7.5.
MMP-14 inhibition was assayed by incubating activated catalytic domain human MMP-14 at 1 nM in assay buffer with 10 μM Mca-Pro-Leu-Gly-Leu-Dpa-Ala-Arg-NH2 and six concentrations of inhibitor. The incubation was performed at 37° C. for 60 minutes.
The final assay concentrations of inhibitors used in the MMP-1 assays to determine Ki were 50, 40, 30, 20, 10 and 5 μM. For MMP-2, the final assay concentrations of inhibitors used were 1000, 800, 600, 400, 200 and 100 nM. For MMP-3, the final assay concentrations of inhibitors used were 5, 4, 3, 2, 1 and 0.5 nM. For MMP-9 and MMP-14, the final assay concentrations of inhibitors used were 5, 4, 3, 2, 1 and 0.5 μM.
All assays were carried out in a black 96-well plate with a final volume of 100 μl in each well. Inhibitors were dissolved in dimethylsulphoxide (DMSO) to 1 mM. […] For MMP-2, MMP-3, MMP-9 and MMP-14, fluorescence was read every 2 minutes at […] and 393 nm γem for 1 hour using a Fluorostar fluorimeter (BMG) with BIOLISE software. For MMP-1 assays, the filters used were 355 nm γex and 440 nm γem; fluorescence was read every 2 minutes for 1 hour. […]

The next assay has as its system uPA and MMP-3. The experiment in a line: Inhibition of uPA and MMP-3-mediated KGF-2 degradation (dual protease assay). The format is biochemical, human. The settings on record: uPA and MMP-3 together / KGF-2; inhibitors used (100 μM), alone or in combination. The protocol: The extent of proteolysis of the growth factors was assayed by incubating TGF-β2, VEGF, PDGF-BB and KGF-2 with the proteases uPA, plasmin, MMP-3 and MMP-13 in assay buffer (either uPA/plasmin buffer, 50 mM tris-HCl, pH 7.4 or MMP assay buffer, 100 mM Tris, 10 mM NaCl, 10 mM CaCl2, 0.05% (w/v) Brij 35, pH 7.5). […] The growth factors were added to the incubation mixture at a final concentration of […], unless otherwise stated.
The effects of uPA were determined by incubation at a typical final concentration of 25 μg/ml (1500 U/ml) with each growth factor. The effects of plasmin were determined at a typical final concentration of 0.1 mg/ml by incubation with the individual growth factors in assay buffer. MMP-3 and -13 were incubated at a typical final concentration of 10 nM with the growth factors in assay buffer. Dual protease assays carried out with uPA and MMP-3 together were performed in 100 mM Tris, […], 10 mM CaCl2, 0.05% (w/v) Brij 35, pH 7.5. All incubations were performed in siliconised tubes (Sigma Aldrich, UK).
The inhibitors used in these experiments were compound 9454, compound 9470 and compound 5214. These were dissolved in DMSO at a concentration of 10 mM. Typical final concentrations for these inhibitors were in the range of 100 μM to 10 nM. Aprotinin was dissolved in the Tris buffer at 10 mg/ml and used at a typical concentration of 10 μg/ml. […]

What is called Ki is a dissociation constant, usually derived from enzyme kinetics or from competition with a known ligand. Regarding `COC[C@@H](NC(=O)[C@@H](NC(=O)[C@H](CCCc1ccc(-c2cccc(OC)c2)c(C)c1)CC(=O)O)C(C)(C)C)c1ccccc1` [compound 9454, (3R)-3-({[(1S)-2,2-Dimethyl-1-({[(1S)-2-methoxy-1-phenylethyl]amino}carbonyl)propyl]amino}carbonyl)-6-(3′-methoxy-2-methylbiphen-4-yl)hexanoic acid], in assay [1], the Ki was 35500 nM. The “Percentage inhibition of proteolysis” value with uPA and MMP-3 came to 16.3.
